This note sets out measurements from patent US20050165029A1, “Pyrrolopyrimidine derivatives and analogs and their use in the treatment and prevention of diseases” (Ambit Biosciences Corporation, priority 2004, published 2005).

The target of test [1] is T1, ABL2 (Homo sapiens, UniProt P42684).
T1 construct: made in house; host or cells: T7 bacteriophage display
Nature of the test: ABL2 (DKIN) binding assay. From the text: (§1) Methods for measuring binding affinities for interactions between small molecules and kinases including FLT3, c-KIT, ABL(T334I) [a.k.a. ABL(T315I)], VEGFR-2 (a.k.a. KDR), and EGFR are described in detail in U.S. application Ser. No. 10/873,835, which is incorporated by reference herein in its entirety. The components of the assays include human kinases expressed as fusions to T7 bacteriophage particles and immobilized ligands that bind to the ATP site of the kinases. […] If the test compound binds the kinase it competes with the immobilized ligand and prevents binding to the solid support. […] The results are read out by quantitating the amount of fusion protein bound to the solid support, which is accomplished by either traditional phage plaque assays or by quantitative PCR (qPCR) using the phage genome as a template. […] The concentration of test molecule that reduces the number of phage bound to the solid support by 50% is equal to the Kd for the interaction between the kinase and the test molecule. Typically, data are collected for twelve concentrations of test compound and, the resultant binding curve is fit to a non-cooperative binding isotherm to calculate Kd.
(§2) Described in the exemplary assays below is data from binding with varying kinases. […] The term “ND” represents non-determined values.

For test [2], the target named is T2, TNIK (Homo sapiens, UniProt Q9UKE5).
T2 construct: made in house; host or cells: T7 bacteriophage display
T2 sequence (Q9UKE5 whole entry): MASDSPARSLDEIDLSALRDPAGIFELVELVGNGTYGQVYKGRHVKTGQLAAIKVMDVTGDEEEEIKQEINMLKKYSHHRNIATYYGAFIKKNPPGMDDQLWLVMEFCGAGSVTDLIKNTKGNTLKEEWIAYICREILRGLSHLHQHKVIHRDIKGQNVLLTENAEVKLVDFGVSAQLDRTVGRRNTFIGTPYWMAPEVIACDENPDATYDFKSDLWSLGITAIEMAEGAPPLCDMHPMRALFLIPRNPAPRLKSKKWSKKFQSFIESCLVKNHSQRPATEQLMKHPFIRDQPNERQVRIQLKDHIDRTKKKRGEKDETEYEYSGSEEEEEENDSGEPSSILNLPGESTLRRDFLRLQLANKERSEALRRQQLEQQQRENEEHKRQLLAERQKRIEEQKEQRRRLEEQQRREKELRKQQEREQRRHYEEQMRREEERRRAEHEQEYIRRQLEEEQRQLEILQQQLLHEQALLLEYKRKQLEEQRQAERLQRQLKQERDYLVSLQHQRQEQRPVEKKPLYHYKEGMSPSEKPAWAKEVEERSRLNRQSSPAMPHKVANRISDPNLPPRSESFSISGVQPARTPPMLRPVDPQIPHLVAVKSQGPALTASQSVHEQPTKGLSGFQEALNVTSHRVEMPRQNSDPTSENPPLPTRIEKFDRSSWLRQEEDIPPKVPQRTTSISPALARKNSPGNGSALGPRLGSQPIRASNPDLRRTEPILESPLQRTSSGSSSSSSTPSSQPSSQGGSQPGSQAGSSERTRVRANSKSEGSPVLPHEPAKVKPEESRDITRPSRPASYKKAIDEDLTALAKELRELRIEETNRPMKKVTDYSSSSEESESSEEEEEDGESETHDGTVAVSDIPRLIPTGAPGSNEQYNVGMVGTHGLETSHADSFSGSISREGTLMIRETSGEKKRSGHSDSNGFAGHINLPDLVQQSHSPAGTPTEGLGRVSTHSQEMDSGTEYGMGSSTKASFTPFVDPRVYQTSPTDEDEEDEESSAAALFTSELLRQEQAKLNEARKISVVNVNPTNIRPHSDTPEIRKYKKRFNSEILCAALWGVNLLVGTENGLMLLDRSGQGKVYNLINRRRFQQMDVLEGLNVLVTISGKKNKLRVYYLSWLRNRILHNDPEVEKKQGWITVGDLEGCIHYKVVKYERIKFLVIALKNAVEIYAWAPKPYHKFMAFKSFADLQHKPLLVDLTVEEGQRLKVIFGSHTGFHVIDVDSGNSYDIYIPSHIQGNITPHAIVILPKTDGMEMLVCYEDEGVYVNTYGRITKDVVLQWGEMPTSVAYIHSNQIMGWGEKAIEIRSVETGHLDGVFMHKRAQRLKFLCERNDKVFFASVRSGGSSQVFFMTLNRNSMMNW
Nature of the test: TNIK (DKIN) Binding Assay.
Description: as §1, §2

In test [3] the target is T3, MARK2 (Homo sapiens, UniProt Q7KZI7).
T3 construct: made in house; host or cells: T7 bacteriophage display
T3 sequence (Q7KZI7 whole entry): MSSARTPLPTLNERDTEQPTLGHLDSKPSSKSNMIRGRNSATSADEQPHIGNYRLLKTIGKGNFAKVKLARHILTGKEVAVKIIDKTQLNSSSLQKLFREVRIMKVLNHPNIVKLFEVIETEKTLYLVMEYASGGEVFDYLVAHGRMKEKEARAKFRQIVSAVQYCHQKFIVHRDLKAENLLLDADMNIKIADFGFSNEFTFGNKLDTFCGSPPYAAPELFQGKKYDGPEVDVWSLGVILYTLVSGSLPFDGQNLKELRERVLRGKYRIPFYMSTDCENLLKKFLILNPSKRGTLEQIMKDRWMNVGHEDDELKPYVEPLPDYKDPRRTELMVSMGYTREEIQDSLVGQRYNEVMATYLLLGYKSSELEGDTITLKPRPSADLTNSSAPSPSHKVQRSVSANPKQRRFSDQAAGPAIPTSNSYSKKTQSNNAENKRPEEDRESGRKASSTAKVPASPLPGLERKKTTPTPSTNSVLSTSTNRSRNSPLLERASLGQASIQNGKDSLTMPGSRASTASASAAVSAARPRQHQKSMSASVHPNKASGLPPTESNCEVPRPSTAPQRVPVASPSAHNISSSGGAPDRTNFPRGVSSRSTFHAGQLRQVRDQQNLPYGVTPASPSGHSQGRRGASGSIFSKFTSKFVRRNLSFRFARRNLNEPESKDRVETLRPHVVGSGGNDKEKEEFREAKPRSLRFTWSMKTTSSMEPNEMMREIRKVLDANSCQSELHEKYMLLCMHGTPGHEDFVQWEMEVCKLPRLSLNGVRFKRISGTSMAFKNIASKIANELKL
Nature of the test: MARK2 (SKIN) Binding Assay.
Description: as §1, §2

The target in test [4] is T4, PLK 4 (Homo sapiens, UniProt O00444).
T4 construct: made in house; host or cells: T7 bacteriophage display
T4 sequence (O00444 1-970): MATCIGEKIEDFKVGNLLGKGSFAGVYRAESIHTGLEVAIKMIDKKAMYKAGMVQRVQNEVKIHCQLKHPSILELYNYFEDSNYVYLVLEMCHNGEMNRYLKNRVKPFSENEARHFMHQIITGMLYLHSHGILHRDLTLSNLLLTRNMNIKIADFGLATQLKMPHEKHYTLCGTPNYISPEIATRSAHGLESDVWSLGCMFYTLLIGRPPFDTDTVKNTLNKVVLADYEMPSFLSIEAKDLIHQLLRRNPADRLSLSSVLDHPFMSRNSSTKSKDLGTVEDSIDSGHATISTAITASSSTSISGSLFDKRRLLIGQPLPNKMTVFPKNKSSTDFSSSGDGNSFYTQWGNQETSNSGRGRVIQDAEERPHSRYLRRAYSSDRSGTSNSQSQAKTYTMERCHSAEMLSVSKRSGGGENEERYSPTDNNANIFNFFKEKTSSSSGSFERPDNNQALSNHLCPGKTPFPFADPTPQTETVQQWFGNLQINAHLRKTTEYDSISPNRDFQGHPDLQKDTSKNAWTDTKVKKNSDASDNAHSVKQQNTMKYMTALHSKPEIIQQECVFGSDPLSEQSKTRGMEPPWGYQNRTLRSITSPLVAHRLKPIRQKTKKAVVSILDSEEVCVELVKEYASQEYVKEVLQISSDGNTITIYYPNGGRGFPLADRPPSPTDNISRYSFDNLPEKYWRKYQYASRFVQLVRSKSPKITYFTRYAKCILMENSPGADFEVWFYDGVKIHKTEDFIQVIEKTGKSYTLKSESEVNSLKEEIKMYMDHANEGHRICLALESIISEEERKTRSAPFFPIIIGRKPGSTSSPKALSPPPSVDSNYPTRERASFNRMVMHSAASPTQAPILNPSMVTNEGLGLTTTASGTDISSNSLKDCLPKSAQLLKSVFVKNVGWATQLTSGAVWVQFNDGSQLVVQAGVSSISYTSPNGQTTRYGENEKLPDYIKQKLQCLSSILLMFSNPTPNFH
Nature of the test: PLK 4 (SKIN) Binding Assay.
Description: as §1, §2

Where only a bound is given, the exact number is not on record here.

T1 sequence (P42684 whole entry): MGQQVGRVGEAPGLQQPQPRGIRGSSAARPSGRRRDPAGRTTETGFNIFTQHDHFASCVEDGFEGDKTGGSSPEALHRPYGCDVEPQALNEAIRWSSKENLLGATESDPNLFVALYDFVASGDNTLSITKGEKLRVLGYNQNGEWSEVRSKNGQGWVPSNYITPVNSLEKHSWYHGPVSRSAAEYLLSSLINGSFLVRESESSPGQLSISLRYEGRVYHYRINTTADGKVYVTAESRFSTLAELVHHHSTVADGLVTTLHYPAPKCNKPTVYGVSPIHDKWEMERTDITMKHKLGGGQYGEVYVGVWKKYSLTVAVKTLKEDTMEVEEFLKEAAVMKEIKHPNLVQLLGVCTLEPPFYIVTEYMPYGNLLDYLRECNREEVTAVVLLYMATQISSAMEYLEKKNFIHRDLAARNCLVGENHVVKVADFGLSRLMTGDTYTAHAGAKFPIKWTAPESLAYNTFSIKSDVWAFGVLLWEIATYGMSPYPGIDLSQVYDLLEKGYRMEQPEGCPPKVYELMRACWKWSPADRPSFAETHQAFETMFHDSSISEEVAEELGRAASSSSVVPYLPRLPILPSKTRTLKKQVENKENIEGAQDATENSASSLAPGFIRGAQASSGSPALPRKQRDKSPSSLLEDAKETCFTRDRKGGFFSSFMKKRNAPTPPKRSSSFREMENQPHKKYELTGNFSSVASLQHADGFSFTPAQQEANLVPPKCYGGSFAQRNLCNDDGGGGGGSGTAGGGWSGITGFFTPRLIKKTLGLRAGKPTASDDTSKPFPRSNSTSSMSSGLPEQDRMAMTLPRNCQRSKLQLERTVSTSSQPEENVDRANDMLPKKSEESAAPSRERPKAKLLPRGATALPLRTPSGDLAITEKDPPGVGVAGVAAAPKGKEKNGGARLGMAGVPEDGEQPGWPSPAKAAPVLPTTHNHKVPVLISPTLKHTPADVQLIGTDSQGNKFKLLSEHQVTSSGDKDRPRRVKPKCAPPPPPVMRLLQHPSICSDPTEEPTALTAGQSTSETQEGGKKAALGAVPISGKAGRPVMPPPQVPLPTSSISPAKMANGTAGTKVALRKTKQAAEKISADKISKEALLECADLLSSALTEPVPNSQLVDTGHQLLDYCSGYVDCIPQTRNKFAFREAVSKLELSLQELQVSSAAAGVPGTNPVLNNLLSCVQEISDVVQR

Take `Oc1ccc(-c2cc3c(Sc4cccc(Cl)c4)ncnc3[nH]2)cc1` [Compound L2]: the Kd in test [1] was 1 to 10 µM; in test [2], < 0.1 µM; in test [3], > 10 µM; in test [4] it was > 10 µM.
